Laboratory results as given in patent US10508088B2, “Methods using HDAC11 inhibitors” (FORMA Therapeutics, Inc., priority 2016, dated 2019).

Target: Recombinant N-terminal GST tag full-length human HDAC11 (Homo sapiens (Human), UniProt Q96DB2)
Assay: Probe binding HDAC11 assay, time resolved fluorescence (TRF)
Details: read-out: HDAC11 IC50 Range
Experimental: The probe binding HDAC11 assay was performed using a time resolved fluorescence (TRF) assay format. Recombinant N-terminal GST tag full-length human HDAC11 was expressed and purified from baculovirus in Sf9 insect cells (SignalChem, # H93-30G-1000). Each assay was performed in 1536 black well microplates (Corning, #3936) in a final volume of 8 μL in assay buffer containing 50 mM HEPES (pH 7.5), 50 mM KCl, 50 mM NaCl, 0.5 mM GSH (L-Glutathione reduced, Sigma #G4251), 0.03% BGG (0.22 μM filtered, Sigma, #G7516-25G), and 0.01% Triton X-100 (Sigma, #T9284-10L). 100 nL of 10-point, 3-fold serial dilution in DMSO was pre-dispensed into respective wells of 1536 assay plates for a final test concentration range of 25 μM to 1.3 nM respectively. The final concentration in the assay of HDAC11 and probe (a fluorescein labeled HDAC 11 inhibitor) was 2.5 nM and 20 nM respectively. 4 μL of 2× probe and 2× anti-GST Terbium (Cisbio, #61GSTXLB) was added to assay plates followed by 4 μL of 2×HDAC11. Plates were incubated for 16 hours at room temperature before time resolved fluorescence was read on the Envision (Excitation at 340 nm, and Emission at 485 nm and 535 nm, Perkin Elmer).
Data from HDAC11 Assays were reported as percent inhibition (inh) compared with control wells based on the following equation: % inh=1−((FLU−AveLow)/(AveHigh−AveLow)) where FLU=measured time resolved fluorescence. AveLow=average time resolved fluorescence of no enzyme control (n=32). AveHigh=average time resolved fluorescence of DMSO control (n=32). IC50 values were determined by curve fitting of the standard 4 parameter logistic fitting algorithm included in the Activity Base software package: IDBS XE Designer Model205. Data is fitted using the Levenburg Marquardt algorithm.

Sequence of Recombinant N-terminal GST tag full-length human HDAC11 (Q96DB2 whole entry): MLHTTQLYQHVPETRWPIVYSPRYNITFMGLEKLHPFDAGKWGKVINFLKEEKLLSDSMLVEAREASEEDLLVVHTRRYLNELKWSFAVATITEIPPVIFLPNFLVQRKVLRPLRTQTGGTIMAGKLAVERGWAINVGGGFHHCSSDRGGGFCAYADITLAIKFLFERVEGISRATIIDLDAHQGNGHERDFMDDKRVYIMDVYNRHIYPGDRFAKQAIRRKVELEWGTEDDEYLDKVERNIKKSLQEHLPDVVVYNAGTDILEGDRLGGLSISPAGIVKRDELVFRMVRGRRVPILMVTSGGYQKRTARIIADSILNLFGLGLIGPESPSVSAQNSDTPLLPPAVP

| SMILES | IC50 [nM] |
| --- | --- |
| O=C(NO)c1cccc(Nc2nc3cc4c(cc3[nH]2)OCO4)c1 [Example 33-4, 3-((5H-[1,3]dioxolo[4′,5′:4,5]benzo[1,2-d]imidazol-6-yl)amino)-N-hydroxybenzamide] | > 1000 |
| CN(c1cccc(C(=O)NO)c1)c1nc2cc(C#N)c(C(F)(F)F)cc2[nH]1 [Example 9-1, 3-((5-cyano-6-(trifluoromethyl)-1H-benzo[d]imidazol-2-yl)(methyl)amino)-N-hydroxybenzamide] | < 500 |
| NCCCCCn1c(Nc2cccc(C(=O)NO)c2)nc2cc(Cl)c(F)cc21 [Example 22-2, 3-((1-(5-aminopentyl)-5-chloro-6-fluoro-1H-benzo[d]imidazol-2-yl)amino)-N-hydroxybenzamide] | < 500 |
| O=C(NO)c1cccc(Nc2nc3cncnc3[nH]2)c1 [Example 30-1, 3-((9H-purin-8-yl)amino)-N-hydroxybenzamide] | > 1000 |
| CC(C)n1c(Nc2cccc(C(=O)NO)c2)nc2cc(Cl)c(Cl)cc21 [Example 17-1, 3-(5,6-dichloro-1-isopropyl-1H-benzo[d]imidazol-2-ylamino)-N-hydroxybenzamide] | < 500 |
| O=C(NCc1ccccc1)ONC(=O)c1cccc(Nc2nc3cc(-c4ccccc4)c(C(F)(F)F)cc3[nH]2)c1 [Example 37-1, N-((benzylcarbamoyl)oxy)-3-((5-phenyl-6-(trifluoromethyl)-1H-benzo[d]imidazol-2-yl)amino)benzamide] | < 500 |
| CSc1ccc(-c2cc3[nH]c(Nc4cccc(C(=O)NO)c4)nc3cc2C(F)(F)F)cc1 [Example 36-5, N-hydroxy-3-((6-(4-(methylthio)phenyl)-5-(trifluoromethyl)-1H-benzo[d]imidazol-2-yl)amino)benzamide] | < 500 |
| O=C(NO)c1ccnc(Nc2nc3cc(Cl)c(Cl)cc3o2)n1 [Example 4-8, 2-((5,6-dichlorobenzo[d]oxazol-2-yl)amino)-N-hydroxypyrimidine-4-carboxamide] | > 1000 |
| COCCn1c(Nc2cccc(C(=O)NO)c2)nc2cccc(OC)c21 [Example 24-2, N-hydroxy-3-((7-methoxy-1-(2-methoxyethyl)-1H-benzo[d]imidazol-2-yl)amino)benzamide] | > 1000 |
| O=C(NO)c1cccc(Nc2nc3cc(Cl)c(Cl)cc3o2)c1 [Example 1-1, 3-(5,6-dichlorobenzo[d]oxazol-2-ylamino)-N-hydroxybenzamide] | < 500 |
| O=C(NO)c1cccc(Nc2nc3cc(Cl)c(Cl)cc3o2)n1 [Example 31-1, 6-((5,6-dichlorobenzo[d]oxazol-2-yl)amino)-N-hydroxypicolinamide] | < 500 |
| Cc1cc2[nH]c(Nc3cccc(C(=O)NO)c3)nc2cc1Cl [Example 33-2, 3-((5-chloro-6-methyl-1H-benzo[d]imidazol-2-yl)amino)-N-hydroxybenzamide] | < 500 |
| O=C(NO)c1cccc(Nc2nc3ncc(C(F)(F)F)cc3o2)c1 [Example 32-2, N-hydroxy-3-((6-(trifluoromethyl)oxazolo[4,5-b]pyridin-2-yl)amino)benzamide] | < 500 |
| CN(c1cccc(C(=O)NO)c1)c1nc2cc(C(F)(F)F)c(-c3cccnc3)cc2n1C [Example 34-2, N-hydroxy-3-(methyl(1-methyl-6-(pyridin-3-yl)-5-(trifluoromethyl)-1H-benzo[d]imidazol-2-yl)amino)benzamide] | > 1000 |
| CN(C)C(=O)c1cccc(-c2cc3[nH]c(Nc4cccc(C(=O)NO)c4)nc3cc2C(F)(F)F)c1 [Example 36-18, 3-(2-((3-(hydroxycarbamoyl)phenyl)amino)-5-(trifluoromethyl)-1H-benzo[d]imidazol-6-yl)-N,N-dimethylbenzamide] | < 500 |
| O=C(NO)c1cccc(Nc2nc3cc(Cl)c(Cl)cc3s2)c1 [Example 5-1, 3-(5,6-dichlorobenzo[d]thiazol-2-ylamino)-N-hydroxybenzamide 2,2,2-trifluoroacetate] | < 500 |
| O=C(NO)c1cccc(Nc2nc3cc(Cl)c(Cl)cc3[nH]2)c1 [Example 33-14, 3-((5,6-dichloro-1H-benzo[d]imidazol-2-yl)amino)-N-hydroxybenzamide] | < 500 |
